Test results published in PMC8468607 (International Journal of Molecular Sciences, 2021).

What was measured:
[1] = Cytotoxicity assay (MTT), H6c7 normal pancreatic duct epithelial cells; type: cell-based; settings: normal human pancreatic duct epithelial cells, mean ± S.E.M., read-out: IC50 against cell viability (cytotoxicity), H6c7
Method: (§1) Human cancer cell lines derived from the liver (Hep3B, Huh7) and the lung (A549, H1299) were obtained from American Type Culture Collection (ATCC, Manassas, VA, USA). An H6c7 human normal pancreatic duct epithelial cell line was purchased from Kerafast (Boston, MA, USA). Hep3B, Huh7, and A549 cells were cultured in Dulbecco′s Modified Eagle′s Medium (DMEM) (Hyclone, Logan, UT, USA), and H1299 cells were cultured in an RPMI-1640 medium (Hyclone). The media were supplemented with 10% fetal bovine serum (FBS) (Gibco/ThermoFisher Scientific) and 1% penicillin/streptomycin (Gibco/ThermoFisher Scientific). In the case of H6c7, the cells were maintained in a keratinocyte serum-free medium supplemented with a recombinant […] (rEGF) and bovine pituitary extract (Gibco/ThermoFisher Scientific). All the cells were incubated at 37 °C under a 5% CO2 atmosphere.
The H6c7 cell line was seeded in a 96-well plate in a complete medium. After 24 h, the culture medium was changed into a keratinocyte serum-free medium. […] The optical density was measured at 540 nm using a Spectrostar Nano microplate reader (BMG LABTECH).

H1299 cells = assay: Proliferation assay (MTT), H1299; type: cell-based; settings: Homo sapiens, NCI-H1299, NSCLC cell line, 48 h, mean ± S.E.M., read-out: IC50 against cell proliferation, H1299
From the text: as §1, with “Hep3B, Huh7, and A549 cells were cultured in Dulbecco′s Modified Eagle′s Medium (DMEM) (Hyclone, Logan, UT, USA), and H1299 cells were cultured in an RPMI-1640 medium (Hyclone).” left out, “Scientific).” for “Scientific). All the cells were incubated at 37 °C under a 5% CO2 atmosphere.”
(§2) HCC (Hep3B, Huh7) and NSCLC (A549, H1299) cell lines were seeded in a 96-well plate at a density of 2.5 × 10^4 cells/mL in complete media and allowed to adhere for 24 h. […] Then, the media were removed, and 200 µL of dimethyl sulfoxide (DMSO) (Duksan, Ansan, South Korea) was added to solubilize the formazan crystal. After a 30 min incubation, the absorbance was measured at 540 nm using a microplate reader (BMG LABTECH, Ortenberg, Germany).

Hep3B cells [2] = assay: Proliferation assay (MTT), Hep3B; type: cell-based; settings: Homo sapiens, HCC cell line, 48 h, mean ± S.E.M., read-out: IC50 against cell proliferation, Hep3B
From the text: as §1, with “Hep3B, Huh7, and A549 cells were cultured in Dulbecco′s Modified Eagle′s Medium (DMEM) (Hyclone, Logan, UT, USA), and H1299 cells were cultured in an RPMI-1640 medium (Hyclone).” left out, “Scientific).” for “Scientific). All the cells were incubated at 37 °C under a 5% CO2 atmosphere.”
as §2

A549 cells [3] = assay: Proliferation assay (MTT), A549; type: cell-based; settings: Homo sapiens, NSCLC cell line, 48 h, mean ± S.E.M., read-out: IC50 against cell proliferation, A549
From the text: as §1, with “Hep3B, Huh7, and A549 cells were cultured in Dulbecco′s Modified Eagle′s Medium (DMEM) (Hyclone, Logan, UT, USA), and H1299 cells were cultured in an RPMI-1640 medium (Hyclone).” left out, “Scientific).” for “Scientific). All the cells were incubated at 37 °C under a 5% CO2 atmosphere.”
as §2

Huh7 cells = assay: Proliferation assay (MTT), Huh7; type: cell-based; settings: Homo sapiens, Huh-7, HCC cell line, 48 h, mean ± S.E.M., read-out: IC50 against cell proliferation, Huh7
From the text: as §1, with “Hep3B, Huh7, and A549 cells were cultured in Dulbecco′s Modified Eagle′s Medium (DMEM) (Hyclone, Logan, UT, USA), and H1299 cells were cultured in an RPMI-1640 medium (Hyclone).” left out, “Scientific).” for “Scientific). All the cells were incubated at 37 °C under a 5% CO2 atmosphere.”
as §2

[4] = system: Hep3B cells xenografted onto CAM; assay: Hep3B xenografted CAM tumor model; type: in vivo, chick; settings: 30 and 150 pmol/CAM, 4 days of incubation
Method: Fertilized chicken eggs were purchased from Byeolbichon Farm (Gyeongbuk, South Korea) and incubated at 37 °C with 55% relative humidity. On day 9 of egg incubation, a small hole was made in the shell over the air sac after the selection of bifurcated vessels. Another hole was made on the broadside using a needle by applying negative pressure to the wider part, creating false air sac. Using a grinding wheel (Dremel, Racine, WI, USA), a small window (1 cm^2) was created in the eggshell above the false air sac. […] The mixture was inoculated on the CAM (final drug doses = 30 and 150 pmol/CAM), and the anti-tumor activity of the drugs was compared at the same concentrations. After sealing the window in the eggshell, the eggs were then returned to the incubator. After 4 days of incubation, tumor tissues attached to CAM were resected from the embryo and harvested. The number of vessel branch points within the tumor region was counted and analyzed using ImageJ software. Chick embryo experiments were performed in accordance with the institutional guidelines of the Institute of Laboratory Animal Resources (1996) and Yeungnam University for the care and use of laboratory animals (2009). The experiment protocol was reviewed and approved by the Institutional Animal Care and Use Committee at the Yeungnam University.

A549 cells [5] = assay: Apoptosis by annexin V-FITC/PI FACS, A549; type: cell-based; settings: Homo sapiens, 48 h, Q4 lower left, annexin V-FITC and PI negative, read-out: FACS quadrant Q4 viable cells, A549
Method: (§3) Then, the cells were stained with propidium iodide and Annexin V-FITC using a FITC Annexin V apoptosis detection kit (BD Biosciences, San Jose, CA, USA) as per the manufacturer’s instructions. Briefly, the vehicle- or the drug-treated cells (1 × 10^5) were washed with ice-cold PBS twice and suspended in 1× binding buffer (100 μL). Then, 5 μL of Annexin V-FITC and 5 µL of PI were added, gently vortexed, and incubated for 15 min at 25 °C in the dark. Thereafter, 400 µL of 1× binding buffer was added and analyzed by flow cytometry (FACSVerse Cytometer, BD Biosciences).

human c-Met kinase = biological target: T1, human c-Met kinase (Homo sapiens, UniProt P08581); assay: c-Met kinase assay (Kinase HotSpot, Reaction Biology); type: biochemical; settings: for c-Met inhibition at fixed concentration / inhibition at 1 µM: 1 μM compound; for c-Met inhibition at fixed concentration: 1 µM; for inhibition at 1 µM: read-out: c-Met inhibition at fixed concentration; for IC50: three independent experiments, ATP 10 μM, read-out: IC50 against c-Met kinase
T1 construct: purchased Reaction Biology Corporation (Malvern, PA, USA), contract assay service
Method: Briefly, human c-Met kinase (5–10 mU) and peptide substrate ([…], 20 µM) were prepared in a reaction buffer with a final volume of 25 μL. The compounds were delivered into the reaction, followed ~20 min. later by the addition of a mixture of ATP and [γ-33P-ATP] (specific activity approx. 500 cpm/pmol, concentration as required) to a final concentration of 10 μM. […] Then, the reaction was spotted onto a P30 filtermat, and unbound phosphate was removed by washing 3 times for 5 min in 75 mM phosphoric acid and once in methanol prior to drying and scintillation counting. […] IC50 values and curve fits were obtained using GraphPad Prism 5 software.

Hep3B cells [6] = assay: Apoptosis by annexin V-FITC/PI FACS, Hep3B; type: cell-based; settings: Homo sapiens, 48 h, Q4 lower left, annexin V-FITC and PI negative, read-out: FACS quadrant Q4 viable cells, Hep3B
Method: as §3

c-MET = assay: Immunoblotting of c-MET expression and phosphorylation in HCC and NSCLC cell lines; type: cell-based, human; settings: 10 μM, 24 and 48 h; Hep3B, Huh7, A549, H1299 cells
Method: The cells (3.5 × 10^5) were seeded into a 60 mm dish and allowed to attach for 12 h. […] Cell lysates were collected in a radioimmune precipitation assay (RIPA) buffer containing a protease and phosphatase inhibitor cocktail (Thermo Fisher Scientific). Cell extracts were centrifuged at 17,000× g for 15 min, and the protein levels in collected supernatants were measured using a BCA protein assay reagent (Pierce; Rockford, IL, USA). The proteins were separated by SDS-PAGE and transferred at 200 mA to Hybond ECL nitrocellulose membranes (Amersham Life Science, Buckinghamshire, UK) for 1 h. Non-specific binding was blocked using 5% bovine serum albumin (BSA) in Tris-buffered saline (TBS)-Tween 20 (TBS-T) for 1 h. […] The membranes were then washed, incubated with ECL (Pierce, Appleton, WI, USA) detection reagent, and exposed under a luminescent image analyzer, LAS-4000mini. β-Actin was used as the loading control.

normal cell lines = system: normal cell lines; design: method as in PMID 27145715; settings: cited from earlier work
[7] = system: several cancer cell lines; design: method as in PMID 27145715; settings: cited from earlier work

T1 sequence (P08581 25-1390): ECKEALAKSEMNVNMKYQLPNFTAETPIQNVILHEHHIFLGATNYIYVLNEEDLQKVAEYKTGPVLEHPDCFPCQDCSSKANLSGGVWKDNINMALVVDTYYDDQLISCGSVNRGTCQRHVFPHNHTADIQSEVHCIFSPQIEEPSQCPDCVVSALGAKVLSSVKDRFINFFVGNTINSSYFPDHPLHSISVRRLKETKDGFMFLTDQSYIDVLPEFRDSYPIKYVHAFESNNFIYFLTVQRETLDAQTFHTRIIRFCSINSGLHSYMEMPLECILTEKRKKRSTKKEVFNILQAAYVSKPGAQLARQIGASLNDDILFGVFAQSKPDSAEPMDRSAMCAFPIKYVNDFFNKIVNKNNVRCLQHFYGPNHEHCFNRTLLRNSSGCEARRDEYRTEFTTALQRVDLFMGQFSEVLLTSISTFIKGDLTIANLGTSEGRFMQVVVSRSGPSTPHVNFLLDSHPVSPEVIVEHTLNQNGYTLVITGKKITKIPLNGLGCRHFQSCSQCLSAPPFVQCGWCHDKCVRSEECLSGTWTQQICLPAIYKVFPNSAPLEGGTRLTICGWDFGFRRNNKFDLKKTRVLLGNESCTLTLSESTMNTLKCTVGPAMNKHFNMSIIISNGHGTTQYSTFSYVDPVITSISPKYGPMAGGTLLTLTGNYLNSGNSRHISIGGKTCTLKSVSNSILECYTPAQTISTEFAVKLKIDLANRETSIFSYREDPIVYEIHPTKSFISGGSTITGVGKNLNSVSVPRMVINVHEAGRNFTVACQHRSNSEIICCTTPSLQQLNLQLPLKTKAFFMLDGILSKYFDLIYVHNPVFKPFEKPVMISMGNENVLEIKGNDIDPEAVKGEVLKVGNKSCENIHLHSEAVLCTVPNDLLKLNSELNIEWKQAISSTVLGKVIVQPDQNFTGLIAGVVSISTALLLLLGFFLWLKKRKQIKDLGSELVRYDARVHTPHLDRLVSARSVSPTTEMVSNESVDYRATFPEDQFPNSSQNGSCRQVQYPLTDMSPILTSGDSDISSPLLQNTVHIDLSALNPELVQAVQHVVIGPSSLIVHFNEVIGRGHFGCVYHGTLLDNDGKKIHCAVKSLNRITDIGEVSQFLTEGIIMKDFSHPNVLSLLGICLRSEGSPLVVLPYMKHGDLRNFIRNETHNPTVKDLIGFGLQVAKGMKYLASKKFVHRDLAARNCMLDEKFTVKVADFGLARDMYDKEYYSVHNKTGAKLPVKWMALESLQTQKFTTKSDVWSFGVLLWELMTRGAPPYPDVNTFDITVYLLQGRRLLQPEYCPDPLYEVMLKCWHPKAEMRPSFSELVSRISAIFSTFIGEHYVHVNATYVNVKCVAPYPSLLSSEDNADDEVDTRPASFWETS

Row | SMILES | melting point [°C] | IC50 at 48 h [1] [µM] | IC50 (H1299 cells) [µM] | IC50 (Hep3B cells [2]) [µM] | IC50 (A549 cells [3]) [µM] | IC50 (Huh7 cells) [µM] | Inhibitory effect on tumor weight [4] | Tumor-induced angiogenesis (number of new vessel branches) [4] | viability at 10 µM (A549 cells [5]) [%] | c-Met inhibition at fixed concentration (human c-Met kinase) [%] | inhibition at 1 µM (human c-Met kinase) [%] | IC50 (human c-Met kinase) [µM] | viability at 10 µM (Hep3B cells [6]) [%] | Expression of c-MET and its phosphorylation (c-MET) | Toxicity to normal cell lines compared to sunitinib (normal cell lines) | Anti-cancer activity against several cancer cell lines compared to sunitinib [7]
1 | COc1cc2nccc(Oc3ccc(NC(=O)C4(C(=O)Nc5ccc(F)cc5)CC4)nc3)c2cc1OC [Compound 4] | 119 | 19.9 ± 1.8 | 8.9 ± 1.2 | 2.1 ± 0.5 | 12.4 ± 6.9 | 6.2 ± 1.8 | greater than that of cabozantinib | significantly blocked | 61.8 | 94 | 94.3 | 0.0049 ± 0.0023 | 35.3 | significantly reduced |  | 
2 | COc1cc2nccc(Oc3c(C)nc(NC(=O)C4(C(=O)Nc5ccc(F)cc5)CC4)c(C)c3C)c2cc1OC [Compound 3] | 141 | > 100 | > 100 | > 100 | > 100 | > 100 |  |  |  | 4 | 3.8 | > 1 |  |  |  | 
3 | COc1cc2nccc(Oc3ccc(NC(=O)C4(C(=O)Nc5ccc(F)cc5)CC4)cc3)c2cc1OC [Cabozantinib, cabozantinib, reference compound] |  | 39.4 ± 4.3 |  |  |  |  |  | significantly blocked | 81.3 |  |  |  | 79.5 |  |  | 
4 | CCN(CC)CCNC(=O)c1c(C)[nH]c(/C=C2\C(=O)Nc3nc(C)c(O)c(C)c32)c1C [Compound 1] |  |  |  |  |  |  |  |  |  |  |  |  |  |  | less toxic to normal cell lines | comparable anti-cancer activity
